Results on nine compounds are retold here after patent US8318769B2, “Substituted sulfonamide compounds” (Gruenethal GmbH, priority 2008, dated 2012).

Assay [1] has as its target T1, human bradykinin 1 receptor (B1R) (Homo sapiens, UniProt P46663).
T1 construct: expressed in transfected cells
T1 sequence (P46663 1-353): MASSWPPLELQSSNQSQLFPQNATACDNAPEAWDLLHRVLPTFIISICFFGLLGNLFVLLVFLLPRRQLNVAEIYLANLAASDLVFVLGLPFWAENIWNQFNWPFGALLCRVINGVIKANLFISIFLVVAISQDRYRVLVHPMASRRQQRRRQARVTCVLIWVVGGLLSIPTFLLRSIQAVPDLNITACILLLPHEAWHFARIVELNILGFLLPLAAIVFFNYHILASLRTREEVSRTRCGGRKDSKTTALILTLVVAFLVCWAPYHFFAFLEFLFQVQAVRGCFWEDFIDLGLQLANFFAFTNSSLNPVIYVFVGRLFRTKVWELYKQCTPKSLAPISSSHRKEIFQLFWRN
Nature of the assay: FLIPR Ca2+ assay, B1R antagonism, human. Type of assay: cell-based. The procedure, abridged: (§1)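 Antagonism is given as % of maximum achievable suppression of agonist-evoked Ca2+ influx, measured by Fluo-4 peak fluorescence in FLIPR. Stable hB1R or rB1R CHO K1 lines received 10 μM compound for 10-20 min before EC80 Lys-Des-Arg9-bradykinin (human) or Des-Arg9-bradykinin (rat).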

The target of assay [2] is T2, bradykinin 1 receptor (B1R) of the rat (Rattus norvegicus, UniProt P97583).
T2 construct: expressed in transfected cells
T2 sequence (P97583 1-337): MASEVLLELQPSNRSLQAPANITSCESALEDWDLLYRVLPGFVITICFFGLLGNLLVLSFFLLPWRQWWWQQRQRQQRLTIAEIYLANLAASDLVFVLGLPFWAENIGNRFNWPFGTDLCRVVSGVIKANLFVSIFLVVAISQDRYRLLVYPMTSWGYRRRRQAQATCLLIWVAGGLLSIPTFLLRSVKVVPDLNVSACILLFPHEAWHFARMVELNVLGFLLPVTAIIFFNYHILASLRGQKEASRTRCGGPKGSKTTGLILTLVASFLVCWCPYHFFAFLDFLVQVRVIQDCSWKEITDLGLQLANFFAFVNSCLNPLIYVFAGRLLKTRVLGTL
Nature of the assay: FLIPR Ca2+ assay, B1R antagonism, rat. The class given is cell-based. The procedure, abridged:
as §1

[3] abbreviates: 10 μM test substance, CHO K1 cells with human B1R gene (hB1R cells), Lys-Des-Arg9-bradykinin at EC80, % inhibition compared with the maximum achievable inhibition, read-out: B1R antagonism, human [10 μM] % inhibition.
[4] abbreviates: CHO-K1, 10 μM test substance, CHO K1 cells with rat B1R gene (rB1R cells), Des-Arg9-bradykinin at EC80, % inhibition compared with the maximum achievable inhibition, read-out: B1R antagonism, rat [10 μM] % inhibition.

Read-outs that look alike come from different tables or passages of the source.

Consider `O=C(COCCN(C(c1ccccc1)c1ccccc1)S(=O)(=O)c1ccc(Cl)cc1Cl)N1CCC(OCCN2CCCC2)(c2cccnc2)CC1` [Example 4, N-benzhydryl-2,4-dichloro-N-(2-(2-oxo-2-(4-(pyridin-3-yl)-4-(2-(pyrrolidin-1-yl)ethoxy)piperidin-1-yl)ethoxy)ethyl)benzenesulfonamide], for which the inhibition (usually the relative decrease from the control value, in per cent) at 10 µM in assay [1] (CHO-K1, read-out: B1R antagonism, human [10 μM] % inhibition) is 99%; in assay [2] (CHO-K1, read-out: B1R antagonism, rat [10 μM] % inhibition) it was 98%.
Turning to `COc1cc(C)c(S(=O)(=O)N2CCCCC2COCC(=O)N2CCC(OCCCN3CCCCC3)(c3cccnc3)CC2)c(C)c1` (stereo not drawn) [Example 17, 2-((1-(4-methoxy-2,6-dimethylphenylsulfonyl)piperidin-2-yl)methoxy)-1-(4-(3-(piperidin-1-yl)propoxy)-4-(pyridin-3-yl)piperidin-1-yl)ethanone], the inhibition at 10 µM in assay [1] (setting [3]) and in assay [2] (setting [4]) was 102% in each case.
Regarding `COc1cc(C)c(S(=O)(=O)N2CCCCC2COCC(=O)N2CCC(OCCN3CCN(C)CC3)(c3cccnc3)CC2)c(C)c1` (stereo not drawn) [Example 28, 2-((1-(4-methoxy-2,6-dimethylphenylsulfonyl)piperidin-2-yl)methoxy)-1-(4-(2-(4-methylpiperazin-1-yl)ethoxy)-4-(pyridin-3-yl)piperidin-1-yl)ethanone], the inhibition at 10 µM in assay [1] (setting [3]) turned out to be 97%; in assay [2] (setting [4]), 102%.
For `COc1cc(C)c(S(=O)(=O)N2CCCC[C@H]2COCC(=O)N2CCCC(OCCN3CCCC3)(c3cccnc3)CC2)c(C)c1` (stereo partly drawn) [Example 55, 2-[[(2S)-1-[(4-methoxy-2,6-dimethyl-phenyl)sulfonyl]-piperidin-2-yl]-methoxy]-1-[4-pyridin-3-yl-4-(2-pyrrolidin-1-yl-ethoxy)-azepan-1-yl]-ethanone], the inhibition at 10 µM in assay [1] (setting [3]) turned out to be 100%; in assay [2] (setting [4]) it was 103%.
As to `CN1CCN(CCCOC2(c3cccnc3)CCN(C(=O)COCC3CCc4ccccc4N3S(=O)(=O)c3ccc(Cl)c(Cl)c3)CC2)CC1` (stereo not drawn) [Example 37, 2-((1-(3,4-dichlorophenylsulfonyl)-1,2,3,4-tetrahydroquinolin-2-yl)methoxy)-1-(4-(3-(4-methylpiperazin-1-yl)propoxy)-4-(pyridin-3-yl)piperidin-1-yl)ethanone], the inhibition at 10 µM in assay [1] (setting [3]) is 77%; in assay [2] (setting [4]) it was 99%.
Turning to `COc1cc(C)c(S(=O)(=O)N(C)CCOCC(=O)N2CCC(OCCN3CCCC3)(c3cccnc3)CC2)c(C)c1` [Example 21, 4-methoxy-N,2,6-trimethyl-N-(2-(2-oxo-2-(4-(pyridin-3-yl)-4-(2-(pyrrolidin-1-yl)ethoxy)piperidin-1-yl)ethoxy)ethyl)benzenesulfonamide], the inhibition at 10 µM in assay [1] (setting [3]) is 98%; in assay [2] (setting [4]), 100%.
With `CN1CCN(CCOC2(c3cccnc3)CCN(C(=O)CC(NS(=O)(=O)c3ccc4ccccc4c3)c3ccccc3)CC2)CC1` (stereo not drawn) [Example 32, N-(3-(4-(2-(4-methylpiperazin-1-yl)ethoxy)-4-(pyridin-3-yl)piperidin-1-yl)-3-oxo-1-phenylpropyl)naphthalene-2-sulfonamide], the inhibition at 10 µM in assay [1] (setting [3]) turned out to be 63%; in assay [2] (setting [4]), 98%.
`O=C(CC(NS(=O)(=O)c1ccc2ccccc2c1)c1ccccc1)N1CCC(OCCN2CCCC2)(c2cccnc2)CC1` (stereo not drawn) [Example 26, N-(3-oxo-1-phenyl-3-(4-(pyridin-3-yl)-4-(2-(pyrrolidin-1-yl)ethoxy)piperidin-1-yl)propyl)naphthalene-2-sulfonamide]: the results for the inhibition at 10 µM in assay [1] (setting [3]) and in assay [2] (setting [4]) were 87% and 91%, respectively.
`COc1cc(C)c(S(=O)(=O)N2CCCC[C@H]2COCC(=O)N2CCC(COCCN3CCCC3)(c3cccnc3)CC2)c(C)c1` [Example 49, (S)-2-((1-(4-methoxy-2,6-dimethylphenylsulfonyl)piperidin-2-yl)methoxy)-1-(4-(pyridin-3-yl)-4-((2-(pyrrolidin-1-yl)ethoxy)methyl)piperidin-1-yl)ethanone]: the figures for the inhibition at 10 µM in assay [1] (setting [3]) and in assay [2] (setting [4]) were 97% and 104%, respectively.
